The record followed here is patent publication US20240067672A1, “FLAVONE DERIVATIVE FOR TREATING TUMORS AND USE THEREOF” (SICHUAN FUSHENGYUAN TECHNOLOGY CO., LTD, priority 2019, published 2024).

Values after ≈ are worked out from the molar mass of the structure shown. Read-outs that look alike come from different tables or passages of the source.

Data set [1] in a line: Determination of solubility (HPLC). The class given is physicochemical. The settings on record: thermodynamic from solid, 37° C. overnight, n = 3. As to the method:
About 1.325 mg of Icaritin and the synthesized derivative were weighed and dissolved in 1.5 mL methanol respectively, then diluted with methanol into solutions of 10, 20, 50, 100, 150, 200, 500 μg/mL, and filtered over an organic-system filter head of 0.45 μm into sample bottles, obtaining the samples for test. Four parts of Icaritin and the synthesized derivative were weighed respectively, 1.00 mg for each part, and placed into 1.5 mL EP tubes, and 1 mL of water, normal saline, PBS, and 0.1% Tween 80 were respectively added thereto. The obtained solutions were ultrasonicated for 1 h, placed in a water bath at 37° C. overnight, and centrifuged at 10000 r/min for 3 min to collect supernatants. The supernatants were taken into sample bottles and detected by HPLC. The experiments were conducted in parallel for three times. The detection of HPLC is conducted under conditions of a chromatographic column of waters Symmetry C18, a mobile phase of a solution of methanol and water with a ratio of 80:20, a flow rate of 1.0 mL/min, a column temperature of 30° C., a detection wavelength of 210 nm, a run time of 30 min, and a sample load of 20 μL.

The next data set concerns HepG2 hepatoma cells. Nature of the data set: Anti-tumor activity in vitro, MTT method, HepG2. The settings on record: Homo sapiens, MTT. In kind it is cell-based, human. As to the method: (§1) The effects of Icaritin and its derivatives on the activities of HepG2 and SMMC7721 hepatoma cells were investigated by a MTT method. […] After reaction for 48, 7 2 h, each well was added with 20 μL 5 mg/mL, of MTT solution, and incubated in a cell incubator for 3-4 h. Then the liquid in the well plates was sucked to discard. Each well was added with 150 μL of dimethyl sulfoxide (DMSO), and shaken on an enzyme-labeled instrument for 30 s at ambient temperature so that the Formazan crystals were dissolved sufficiently. The absorbance value A of each well at 570 nm was detected by the enzyme-labeled instrument, and the experiment was repeated for 3 times.

The next data set concerns SMMC7721 hepatoma cells. Nature of the data set: Anti-tumor activity in vitro, MTT method, SMMC7721. The settings on record: Homo sapiens, SMMC-7721, MTT. In kind it is cell-based, human. Here is the method: as §1
Another data set has as its system HepG2 subcutaneous tumor. Nature of the data set: Anti-tumor activity in vivo, HepG2 nude mouse model. Also noted: species or system Balb/c nude mice. The settings on record: HepG2 nude mice, intraperitoneally every day for 21 days; equal mole of Icaritin (Icaritin 10 mg/kg). The text has this:
According to the investigation results of solubility and cell activity, compounds 51 and 57 with high solubility and strong cell activity were selected to evaluate the anti-hepatoma activity in vivo on HepG2 nude mouse models.
Human hepatoma cells HepG2 were cultivated to logarithmic growth phase in DMEM culture medium containing 10% fetal calf serum and 1% antibiotics (penicillin and streptomycin), and digested by adding 0.25% pancreatin. After the resulting cells were cultivated in DMEM and the pancreatin was removed, they were centrifuged at 1000 rpm for 3 min. Then the cells were collected and washed with free medium until no bubbles produced as observed by naked eyes, and then ° entrifuged. After discarding the supernatant, the cells were resuspended with free medium adjust the cell density to 1×10^6/100 μL.
70 Balb/c nude mice raised in an SPF-grade animal house were taken. 100 μL, HepG2 cells were inoculated subcutaneously at the right lateral rib of each nude mouse. The growing status of nude mice was observed and the subcutaneous tumor volume was measured every day. One week after inoculation, obvious nodules were formed subcutaneously in nude mice. Administration was initiated when the tumor grew to 100 mm^3.
Tumor volume increased to 80-120 mm^3 at two weeks after inoculation, marked as Day 0. The nude mice were randomly divided into 6 groups with 6 mice in each group: a normal saline group (control), an Icaritin group (Icarian), a yyhs-i-b high dose group, a yyhs-1-b low dose group, a yyhs-2-a high dose group, and a yyhs-2-a low dose group. Administration was performed intraperitoneally every day for 21 days totally.
The administration doses were: Icarian at 10 mg/kg, compound 51 high dose at 25.30 mg/kg, low dose at 12.65 mg/kg, compound 57 high dose at 22.91 mg/kg, and low dose at 11.45 mg/kg.
From day 0, the body weights and tumor volumes of nude mice were measured once every three days, in which the maximum diameter (a) of tumor was measured first, and then the longest radial line length (b) perpendicular to the maximum diameter line was measured, in mm, thereby calculating the tumor volume according to the following formula: […]
At the end of the treatment cycle, blood was taken from orbital vein of the nude mice for later blood routine test. Then the nude mice were sacrificed using cervical vertebra dislocation. After taking photos, the tumors were stripped immediately and photographed for record. From day 0, the body weights of each group of nude mice were weighed and recorded every 3 days, and at the same time, the tumor volumes of these nude mice were recorded. The average body weight and tumor volume were calculated for each group, and the curve of body weight versus tumor volume of the nude mice was plotted according to the statistical data.
The hearts, livers, spleens, lungs, and kidneys were subsequently picked from the nude mice, soaked with 4% paraformaldehyde and then preserved at a low temperature of 4° C. for later investigation of the mechanism of the anti-tumor in vivo. The tumor volume growth curve was plotted with the time as the horizontal coordinate, and with the tumor volume as the vertical coordinate. The tumor volume growth curves and the appearance of tumors are seen in FIG. 1. The body weight changing curves of mice are plotted in FIG. 2, with the time as the horizontal coordinate, and the body weight of mice as the vertical coordinate.

As to `COc1ccc(-c2oc3c(CC=C(C)C)c(O)cc(O)c3c(=O)c2O)cc1` [Icaritin, reference compound], the solubility (commonly the concentration that dissolves in the medium under given conditions) in data set [1] (aqueous buffer, PBS, read-out: Solubility, PBS) was 8.1 ± 0.897 µg/mL (≈ 22 µM); in data set [1] (aqueous with cosolvent or surfactant or cyclodextrin, 0.1% Tween 80, read-out: Solubility, 0.1% Tween 80) it was 8.11 ± 0.672 µg/mL (≈ 22 µM); in data set [1] (saline or isotonic, normal saline, read-out: Solubility, Normal Saline) it was 8.1 ± 1.01 µg/mL (≈ 22 µM); in data set [1] (water, read-out: Solubility, Water) it was 8.57 ± 0.832 µg/mL (≈ 23.3 µM). Further, the IC50 (usually the concentration at which inhibition is half-maximal) turned out to be 20.6 ± 2.82 µM in the data set with HepG2 hepatoma cells (HepG2, 48 h, read-out: IC50 HepG2 48 h); 16.1 ± 1.27 µM in the data set with HepG2 hepatoma cells (HepG2, 72 h, read-out: IC50 HepG2 72 h); 23.2 ± 1.02 µM in the data set on SMMC7721 hepatoma cells (SMMC7721, 48 h, read-out: IC50 SMMC7721 48 h); 15 ± 0.66 µM in the data set on SMMC7721 hepatoma cells (SMMC7721, 72 h, read-out: IC50 SMMC7721 72 h). The molecule further returned a tumor inhibition rate with HepG2 subcutaneous tumor of 53%.
